Assay results reported in patent publication US4935434A, “Antiarthritic isoxazole-4-carboxamides” (Bristol-Myers Company, priority 1988, dated 1990).
Where two headings read alike, the source gives them in different places.

Experiments:
[1] = test system: adjuvant-induced polyarthritis; assay: Modified developing adjuvant arthritis in rats (adjuvant-induced polyarthritis, AIP); assay type: in vivo, male Lewis rats; conditions: Rattus norvegicus, po; for inhibition in vivo at 100 mg/kg: 100 mg/kg once daily p.o. d. 1-8; for inhibition in vivo at 50 mg/kg: 50 mg/kg once daily p.o. d. 1-8; for inhibition in vivo at 76 mg/kg: 76 mg/kg once daily p.o. d. 1-8; for inhibition in vivo at 89 mg/kg: 89 mg/kg (d. 1-5) once daily p.o.
Experimental: A. Modified developing adjuvant arthritis in rats.
This test is based on the procedure originally described by Pearson (Proc. Soc. Biol. Med., 1956, pp 91-5). Each experimental group used six male Lewis rats weighing approx. 250 gm. Arthritis was produced by a single intradermal injection of Mycobacterium butyricum (0.6 mg in 0.1 ml mineral oil) into the base of the tail. Test compounds were administered orally, once daily, starting on the day of inoculation (day 1) through day 8. The initial dosage was reduced during this period when side effects were observed. The paw volume (average of two hind paws) was measured by the mercury displacement method at least twice weekly during the course of the experiment (40 to 42 days). The efficacy of a compound was expressed as the percent reduction of hind paw volume of treated vs. untreated rats using the following equation: [formula]
^a once daily, p.o., from d. 1-8 (unless otherwise specified).
^b % inhibition of paw edema: 0 = <25; + = 25-<40; ++ = 40-<60; +++ =

[2] = test system: carragenin-induced paw edema; assay: Carrageenin induced paw edema in the rat (CIP); assay type: in vivo, male Sprague Dawley rats; conditions: single oral dose 50 mg/kg 30 min. prior to carrageenin, determined 4 hrs. after injection, read-out: CIP % inhib. (reduction in paw volume)
Experimental: B. Carrageenin induced paw edema in the rat.
This test is based on the procedure originally described by Holsapple and Yim (Inflammation, 1984, 8:223). Six male Sprague Dawley rats weighing approx. 300 gm were used in each experimental group. The rats had been starved for 24 hours prior to injection of 0.1 ml of 1% carrageenin into the plantar surface of the left hind paw. Test compounds were dosed orally 30 minutes prior to carrageenin administration. The volumes of the left hind paws were measured by mercury displacement at 2,4, and 6 hours following carrageenin injection. The efficacy of a compound was expressed as the percent inhibition of carrageenin injected paw volume as compared to non-injected paw using the following equation: [formula] The peak of drug effects usually occurred 2-4 hours following carrageenin injection.
^c test compound administered as a single oral dose of 50 mg/kg 30
min. prior to carrageenin injection; % inhibition determined 4 hrs. after
carrageenin injection; I = <25% reduction in paw volume and A =
≥25% reduction in paw volume.

[3] = 528 h, d. 20-22, read-out: AIP % inhib. (% inhibition of paw edema) d. 20-22
[4] = 1008 h, d. 40-42, read-out: AIP % inhib. (% inhibition of paw edema) d. 40-42

Compound	inhibition in vivo at 50 mg/kg [2]	inhibition in vivo at 50 mg/kg [1, 3]	inhibition in vivo at 50 mg/kg [1, 4]	further results
COc1ccc(NC(=O)c2cnoc2C2CC2)cc1 [Example 6, 5-Cyclopropylisoxazole-4-carboxylic acid (4-methoxy)anilide]	< 25%			inhibition in vivo at 100 mg/kg [1, 3]: < 25%; inhibition in vivo at 100 mg/kg [1, 4]: 40 to 60%
O=C(Nc1ccc(C(F)(F)F)cc1)c1cnoc1C1CC1 [Example 7, 5-Cyclopropylisoxazole-4-carboxylic acid 4-trifluoromethylanilide]	≥ 25%			
C#CCNC(=O)c1cnoc1C1CC1 [Example 3, 5-Cyclopropylisoxazole-4-[N-(2-propynyl)]carboxamide]	< 25%	40 to 60%	40 to 60%	
CC(C)NC(=O)c1cnoc1C1CC1 [Example 1, 5-Cyclopropylisoxazole-4-(N-isopropyl)carboxamide]	< 25%			inhibition in vivo at 76 mg/kg [1, 3]: 25 to 40%; inhibition in vivo at 76 mg/kg [1, 4]: 40 to 60%
O=C(Nc1cccc(C(F)(F)F)c1)c1cnoc1C1CC1 [Example 5, 5-Cyclopropylisoxazole-4-carboxylic acid 4-(3-trifluoromethyl)anilide]	≥ 25%	40 to 60%	60 to 80%	
O=C(NC1CC1)c1cnoc1C1CC1 [Example 4, 5-Cyclopropylisoxazole-4-(N-cyclopropyl)carboxamide]	< 25%			inhibition in vivo at 89 mg/kg [1, 3]: 40 to 60%; inhibition in vivo at 89 mg/kg [1, 4]: 60 to 80%
Cc1oncc1C(=O)NCc1ccc(C(F)(F)F)cc1 [Example 8, 5-Methylisoxazole-4-(N-4-trifluoromethylbenzyl)carboxamide]	< 25%			
CC(C)(C)NC(=O)c1cnoc1C1CC1 [Example 2, 5-Cyclopropylisoxazole-4-(N-tert-butyl)carboxamide]	< 25%	40 to 60%	40 to 60%	
